{
  "source": "patent US6818780B2",
  "about": "“P-hydroxyphenyl propionic acid derivatives as antiproliferative agents” (Consejo Superior de Investigaciones Cientificas, priority 2000, dated 2004)",
  "key": {"[1]": {"system": "human peripheral blood mononuclear cells (CMSP)", "assay": "Test on lymphocyte proliferation: human peripheral blood mononuclear cells (3H-thymidine incorporation), with or without rhIL-2", "assay_type": "cell-based", "conditions": "for Proliferation of human peripheral blood mononuclear cells in the presence of rhIL-2, Con A 2 μg/ml (cpm ± DS) / Proliferation of human peripheral blood mononuclear cells in the presence of rhIL-2, Medium (cpm ± DS) / Proliferation of human peripheral blood mononuclear cells in the presence of rhIL-2, PHA 10 μg/ml (cpm ± DS) / Proliferation of human peripheral blood mononuclear cells in the presence of rhIL-2, aCD3 5 μg/ml (cpm ± DS) / Proliferation of human peripheral blood mononuclear cells in the presence of rhIL-2, aCD3 + Con A (cpm ± DS) / Proliferation of human peripheral blood mononuclear cells in the presence of rhIL-2, aCD3 + PHA (cpm ± DS): rhIL-2 100 UI/ml", "from_the_text": "Tests on Human Peripheral Blood Mononuclear Cells Material and Methods:\nIn order to study more deeply the effects of lactone on cell proliferation, we checked whether the effects described in the above section on cells of murine origin were specific to the cell type and the species or whether, on the other hand, these effects were xeno-independent. For this, we purified human peripheral blood mononuclear cells from healthy controls and we proceeded to study the possible effects of inhibition on the proliferative activity of peripheral blood mononuclear cells (CMSP) from humans, induced by different mitogenic agents acting alone and/or in costimulation with other mitogens and in the presence or absence of recombinant human interleukin 2 (rhIL-2).\nMitogens: Phytohaemaglutinin M (PHA) (Difco Lab., Detroit, Mich., USA), Concanavalin A (Con A, 2 μg/ml, Sigma Chemical Co., Mich., USA), Immobilised anti-CD3 (OKT3, 5 μg/ml, Ortho-mune, Orthodiagnostic System) and rhIL-2 (100 IU/ml, Hoffman-La Roche, N.J., USA).\nAll the reagents included in these tests were diluted in RPMI 1640 culture medium (Whitaker Bioproducts, Walkersville, USA) supplemented with 10% of decomplemented foetal calf serum (Biochrom K G, Berlin), L-glutamin (2 mM, Biochrom K G), Hepes (25 mM, Biochrom K G) and antibiotic (1% penicillin streptomycin, Difco Lab, Detroit, Mich., USA).\nAlso, all the mitogens were optimised in a dose response way in order to obtaining the maximum proliferative response after 5 days of culture.\nVenous blood: The CMSP were obtained from venous blood extracted by antecubital venous puncture. 50 ml of blood were extracted to which were added 50 U of calcic heparin and the mixture was diluted 1/1 (vol/vol) with PSS.\nHuman mononucleated cells: In order to isolate the CMSP they were proceeded to be separated from the rest of the blood components by means of the formation of a density gradient on Ficoll. The cells thus obtained are resuspended in PSS and centrifuged at 400×g for 10 minutes (washing process) and then resuspended in PSS. This operation is repeated three times. In the last of them, PSS is replaced with complete medium.\n(§1) General culture conditions: All cell cultures were developed under conditions of sterility in a vertical laminar flow chamber, using single-use sterile materials or materials sterilised in an autoclave or with ethylene oxide. The cultures were conserved in a stove kept at a temperature of 37° C., in an atmosphere with 5% CO2 and relative humidity of 95%. In the various experiments performed, the purified CMSP cell preparations were incubated in sterile dishes with 96 wells at concentrations of 5×10^4 cells/well (200 μl) in the presence of different concentrations of different mitogens for 5 days.\n(§2) The method used for quantifying the cell proliferation was analysis of the incorporation of ^3H-thymidine (^3H-T) into DNA synthesised de novo, detecting the emission of β radiation from the dry extracts of cell cultures to which the tritiated base had been added before its finalisation and collection. The synthesis of DNA was done in triplicate on sterile dishes with 96 flat-bottom wells.\n(§3) From 20 to 24 hour prior to terminating the cell culture, 1 μCi of ^3H-T was added to each well containing medium; the cultures were gathered by suction through a glass filter, using a Skatron culture collector for this.\n(§4) The synthesis of DNA has been expressed in counts per minute (cpm). Each test was conducted in triplicate, with those data having a variability greater than 10% compared to the mean of the triplicate being rejected, since they could indicate a technical error or contamination in the culture. The cultures were carried out at a constant cell volume per well, as well as at a constant volume of 200 μl.\nNegative Control: Cells in the Presence of Complete Culture Medium\nPositive Control: Stimulation of Cells without the Presence of Lactone […]"}, "[2]": {"system": "human peripheral blood mononuclear cells", "assay": "Stability studies: antiproliferative activity of lactone kept one year in DMSO, human peripheral blood mononuclear cells", "assay_type": "cell-based", "conditions": "for Proliferation of human peripheral blood mononuclear cells, Medium (cpm ± DS) / Proliferation of human peripheral blood mononuclear cells, PHA 10 μg/ml (cpm ± DS) / Proliferation of human peripheral blood mononuclear cells, PHA + rhIL-2 (cpm ± DS): sample kept one year at room temperature at 40.0 mg/ml in DMSO", "method": "as §1, §2, §3, §4\nThe sample remains for one year at room temperature and at a concentration of 40.0 mg/ml in DMSO."}, "[3]": {"system": "murine splenocytes", "assay": "Test of lymphocyte proliferation: proliferation of murine splenocytes (tritiated thymidine incorporation)", "assay_type": "cell-based, Bal b/c mice", "conditions": "range 100-0.75 μg/ml"}, "[4]": {"conditions": "Lactone 10 μg/ml, no rhIL-2, 5 days"}, "[5]": {"conditions": "Lactone 100 μg/ml, no rhIL-2, 5 days"}},
  "data": [
    {"smiles": "C=C1C(=O)OC(CCc2ccc(OC)cc2)C1C", "note": "(stereo not shown) [lactone]", "values": [
      {"measurement": "Proliferation of human peripheral blood mononuclear cells, aCD3 + Con A (cpm ± DS)", "setting": "[1]; [4]", "result": "11 ± 1", "unit": "cpm"},
      {"measurement": "Proliferation of human peripheral blood mononuclear cells, aCD3 + PHA (cpm ± DS)", "setting": "[1]; [4]", "result": "23 ± 7", "unit": "cpm"},
      {"measurement": "Proliferation of human peripheral blood mononuclear cells in the presence of rhIL-2, Con A 2 μg/ml (cpm ± DS)", "setting": "[1]; Lactone 10 μg/ml, 5 days", "result": "611 ± 75", "unit": "cpm"},
      {"measurement": "Proliferation of human peripheral blood mononuclear cells in the presence of rhIL-2, Medium (cpm ± DS)", "setting": "[1]; Lactone 10 μg/ml, 5 days", "result": "866 ± 66", "unit": "cpm"},
      {"measurement": "Proliferation of human peripheral blood mononuclear cells in the presence of rhIL-2, PHA 10 μg/ml (cpm ± DS)", "setting": "[1]; Lactone 10 μg/ml, 5 days", "result": "579 ± 1033", "unit": "cpm"},
      {"measurement": "Proliferation of human peripheral blood mononuclear cells in the presence of rhIL-2, aCD3 5 μg/ml (cpm ± DS)", "setting": "[1]; Lactone 10 μg/ml, 5 days", "result": "489 ± 25", "unit": "cpm"},
      {"measurement": "Proliferation of human peripheral blood mononuclear cells in the presence of rhIL-2, aCD3 + Con A (cpm ± DS)", "setting": "[1]; Lactone 10 μg/ml, 5 days", "result": "164 ± 65", "unit": "cpm"},
      {"measurement": "Proliferation of human peripheral blood mononuclear cells in the presence of rhIL-2, aCD3 + PHA (cpm ± DS)", "setting": "[1]; Lactone 10 μg/ml, 5 days", "result": "304 ± 35", "unit": "cpm"},
      {"measurement": "Proliferation of human peripheral blood mononuclear cells, Con A 2 μg/ml (cpm ± DS)", "setting": "[1]; [5]", "result": "204 ± 43", "unit": "cpm"},
      {"measurement": "Proliferation of human peripheral blood mononuclear cells, Medium (cpm ± DS)", "setting": "[1]; [5]", "result": "104 ± 26", "unit": "cpm"},
      {"measurement": "Proliferation of human peripheral blood mononuclear cells, PHA 10 μg/ml (cpm ± DS)", "setting": "[1]; [5]", "result": "1086 ± 308", "unit": "cpm"},
      {"measurement": "Proliferation of human peripheral blood mononuclear cells, aCD3 5 μg/ml (cpm ± DS)", "setting": "[1]; [5]", "result": "39 ± 10", "unit": "cpm"},
      {"measurement": "Proliferation of human peripheral blood mononuclear cells, aCD3 + Con A (cpm ± DS)", "setting": "[1]; [5]", "result": "8 ± 6", "unit": "cpm"},
      {"measurement": "Proliferation of human peripheral blood mononuclear cells, aCD3 + PHA (cpm ± DS)", "setting": "[1]; [5]", "result": "13 ± 4", "unit": "cpm"},
      {"measurement": "Proliferation of human peripheral blood mononuclear cells in the presence of rhIL-2, Con A 2 μg/ml (cpm ± DS)", "setting": "[1]; Lactone 100 μg/ml, 5 days", "result": "532 ± 109", "unit": "cpm"},
      {"measurement": "Proliferation of human peripheral blood mononuclear cells in the presence of rhIL-2, Medium (cpm ± DS)", "setting": "[1]; Lactone 100 μg/ml, 5 days", "result": "918 ± 1", "unit": "cpm"},
      {"measurement": "Proliferation of human peripheral blood mononuclear cells in the presence of rhIL-2, PHA 10 μg/ml (cpm ± DS)", "setting": "[1]; Lactone 100 μg/ml, 5 days", "result": "892 ± 199", "unit": "cpm"},
      {"measurement": "Proliferation of human peripheral blood mononuclear cells in the presence of rhIL-2, aCD3 5 μg/ml (cpm ± DS)", "setting": "[1]; Lactone 100 μg/ml, 5 days", "result": "400 ± 44", "unit": "cpm"},
      {"measurement": "Proliferation of human peripheral blood mononuclear cells in the presence of rhIL-2, aCD3 + Con A (cpm ± DS)", "setting": "[1]; Lactone 100 μg/ml, 5 days", "result": "237 ± 109", "unit": "cpm"},
      {"measurement": "Proliferation of human peripheral blood mononuclear cells in the presence of rhIL-2, aCD3 + PHA (cpm ± DS)", "setting": "[1]; Lactone 100 μg/ml, 5 days", "result": "286 ± 10", "unit": "cpm"},
      {"measurement": "Lactone concentration at which the blastogen response induced in CMSP falls by 50%", "setting": "[1]; induced by Con A+rhIL-2", "result": 0.27, "unit": "µg/mL"},
      {"measurement": "Lactone concentration at which the blastogen response induced in CMSP falls by 50%", "setting": "[1]; induced by Concavalin A (Con A)", "result": 0.5, "unit": "µg/mL"},
      {"measurement": "Lactone concentration at which the blastogen response induced in CMSP falls by 50%", "setting": "[1]; induced by PHA+rhIL-2", "result": 0.29, "unit": "µg/mL"},
      {"measurement": "Lactone concentration at which the blastogen response induced in CMSP falls by 50%", "setting": "[1]; induced by aCD3+Con A", "result": 0.21, "unit": "µg/mL"},
      {"measurement": "Lactone concentration at which the blastogen response induced in CMSP falls by 50%", "setting": "[1]; induced by aCD3+PHA", "result": 0.24, "unit": "µg/mL"},
      {"measurement": "Lactone concentration at which the blastogen response induced in CMSP falls by 50%", "setting": "[1]; induced by immobilised aCD3+Con A+rhIL-2", "result": 0.25, "unit": "µg/mL"},
      {"measurement": "Lactone concentration at which the blastogen response induced in CMSP falls by 50%", "setting": "[1]; induced by immobilised aCD3+PHA+rhIL-2", "result": 0.26, "unit": "µg/mL"},
      {"measurement": "Lactone concentration at which the blastogen response induced in CMSP falls by 50%", "setting": "[1]; induced by immobilised aCD3+rhIL-2", "result": 0.24, "unit": "µg/mL"},
      {"measurement": "Lactone concentration at which the blastogen response induced in CMSP falls by 50%", "setting": "[1]; induced by immobilised anti-CD3 (aCD3)", "result": 0.06, "unit": "µg/mL"},
      {"measurement": "Lactone concentration at which the blastogen response induced in CMSP falls by 50%", "setting": "[1]; induced by phytohaemaglutinin M (PHA)", "result": 0.25, "unit": "µg/mL"},
      {"measurement": "Lactone concentration at which the blastogen response induced in CMSP falls by 50%", "setting": "[1]; induced by rhIL-2", "result": 0.26, "unit": "µg/mL"},
      {"measurement": "Lactone concentration at which the spontaneous blastogen response of the CMSP falls by 50%", "setting": "[1]; no mitogen", "result": 0.66, "unit": "µg/mL"},
      {"measurement": "Proliferation of human peripheral blood mononuclear cells, Medium (cpm ± DS)", "setting": "[2]; Lactone 0.25 μg/ml", "result": "283 ± 9", "unit": "cpm"},
      {"measurement": "Proliferation of human peripheral blood mononuclear cells, PHA 10 μg/ml (cpm ± DS)", "setting": "[2]; Lactone 0.25 μg/ml", "result": "60428 ± 5820", "unit": "cpm"},
      {"measurement": "Proliferation of human peripheral blood mononuclear cells, PHA + rhIL-2 (cpm ± DS)", "setting": "[2]; Lactone 0.25 μg/ml", "result": "144693 ± 9470", "unit": "cpm"},
      {"measurement": "Proliferation of human peripheral blood mononuclear cells, Medium (cpm ± DS)", "setting": "[2]; Lactone 100 μg/ml", "result": "47 ± 5", "unit": "cpm"},
      {"measurement": "Proliferation of human peripheral blood mononuclear cells, PHA 10 μg/ml (cpm ± DS)", "setting": "[2]; Lactone 100 μg/ml", "result": "906 ± 251", "unit": "cpm"},
      {"measurement": "Proliferation of human peripheral blood mononuclear cells, PHA + rhIL-2 (cpm ± DS)", "setting": "[2]; Lactone 100 μg/ml", "result": "341 ± 21", "unit": "cpm"},
      {"measurement": "Stability over time of the product dissolved in dimethylsulphoxide (DMSO)", "setting": "[2]; one year at room temperature, 40.0 mg/ml in DMSO, judged by antiproliferative activity", "result": "the antiproliferative biological activity of lactone is demonstrated"},
      {"measurement": "Cytotoxicity effects on murine splenocytes", "setting": "[3]", "result": "Nor was are cytotoxicity effects found"}
    ]}
  ]
}
